Measured values: patent US4683292A, “Immunotherapeutic polypeptide agents which bind to lymphocyte immunoglobulin FC receptors” (Immunetech, Inc., priority 1983, dated 1987)
Ends that are not written are not given here. Peptide text beside a SMILES is read from it.

Legend:
[1] = test system: NEUTROPHIL (PMN) Fc Receptor IgG; experiment: Rosette inhibition assay, IgG-coated ox erythrocytes, fresh human PMNs; format: binding; settings: relative to intact monomeric myeloma protein at equal concentration; 15 min preincubation
Description: (§1) The Fc receptor blocking activity of the subject peptides was assessed using well established techniques and procedures. In particular, a rosette assay was employed which uses either monomeric, chemically or heat aggregated human IgG or IgE obtained from human myeloma sera. (Gonzalez-Molina, et al., J. Clin. Invest., 59, 616 (1977); Spiegelberg, et al. in Immunoassays: Clinical Laboratory Techniques for the 1980's (Alan R. Liss: New York, 1980), pp. 287-300). The IgG or IgE is then adsorbed to ox-erythrocytes which has been previously treated with trypsin and pyruvic aldehyde. […] Addition of inhibitor myeloma proteins or inhibitor peptides produced a reproducable reduction of rosette formation, […], phosphate buffered isotonic saline, was used alone as control and then multiplying the calculated quotient by 100.
(§2) Table 1 presents the inhibition observed by representative peptide inhibitors calculated as a percentage of the inhibition observed with intact, monomeric myeloma proteins. […]

[2] = test system: MONOCYTE/MACROPHAGE Fc Receptor IgG; experiment: Rosette inhibition assay, IgG-coated ox erythrocytes, monocytes / U937; format: binding, human; settings: relative to intact monomeric myeloma protein at equal concentration; 15 min preincubation
Description: as §1, §2

BASOPHIL Fc Receptor IgG = experiment: Rosette inhibition assay, IgG-coated ox erythrocytes, basophils; format: binding, human; settings: relative to intact monomeric myeloma protein at equal concentration; 15 min preincubation
Description: as §1, §2

[3] = test system: systemic allergic disease; settings: humans, subcutaneous injection; cited from earlier work
[4] = molecular target: T1, IgE Fc receptor of human basophils (Homo sapiens, UniProt P12319); settings: Plummer et al. 1983; cited from earlier work
T1 construct: host or cells: human basophils
T1 sequence (P12319 26-257): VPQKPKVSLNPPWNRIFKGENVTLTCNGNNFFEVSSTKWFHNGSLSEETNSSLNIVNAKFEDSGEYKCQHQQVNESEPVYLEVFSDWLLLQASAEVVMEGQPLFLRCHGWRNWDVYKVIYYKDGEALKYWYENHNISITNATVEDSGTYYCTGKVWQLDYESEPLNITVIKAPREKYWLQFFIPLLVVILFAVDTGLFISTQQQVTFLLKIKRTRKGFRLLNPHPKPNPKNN
T1 sequence (Q01362 1-244 partner): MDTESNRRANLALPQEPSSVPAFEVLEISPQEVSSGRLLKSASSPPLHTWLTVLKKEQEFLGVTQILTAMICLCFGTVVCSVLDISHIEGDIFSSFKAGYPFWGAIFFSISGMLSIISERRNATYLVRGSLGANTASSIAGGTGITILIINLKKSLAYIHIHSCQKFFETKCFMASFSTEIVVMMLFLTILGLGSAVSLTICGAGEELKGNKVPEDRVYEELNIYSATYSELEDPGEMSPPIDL
T1 sequence (P30273 19-86 partner): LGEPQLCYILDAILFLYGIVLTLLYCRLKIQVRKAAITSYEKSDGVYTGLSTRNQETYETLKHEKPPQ

[5] = test system: granulocytes, monocytes and macrophages; settings: in vitro; cited from earlier work
rodent mast cells = settings: Stanworth et al. 1979; cited from earlier work
human mast cells = settings: Stanworth et al. 1979; cited from earlier work
[6] = test system: human monocyte IgG Fc receptors; settings: Ciccimarra et al. 1975; Ratcliffe and Stanworth 1982; cited from earlier work

CC(=O)N[C@@H](CCC(N)=O)C(=O)N1CCC[C@H]1C(=O)N[C@@H](CCC(=O)O)C(=O)N[C@@H](CC(N)=O)C(=O)O [Ac--Gln--Pro--Glu--Asn, Ac-Gln-Pro-Glu-Asn] (Ac-QPEN-OH)
Rosette inhibition expressed as percent inhibition by monomeric IgG, neutrophil (PMN) Fc receptor IgG [1]: 95%
Rosette inhibition expressed as percent inhibition by monomeric IgG, monocyte/macrophage Fc receptor IgG [2]: 19%
Rosette inhibition expressed as percent inhibition by monomeric IgG, basophil Fc receptor IgG (BASOPHIL Fc Receptor IgG): 74%

Asp-Ser-Asp-Pro-Arg (DSDPR; printed: Asp-Ser-Asp-Pro-Arg) [pentapeptide derived from human IgE Cε 3 at aa 320-324]
inhibition of systemic allergic disease [3]: inhibit systemic allergic disease
blocking of human IgE binding to basophil IgE Fc receptors [4]: up to 70%

Gly-Gln-Pro-Arg (GQPR; printed: Gly-Gln-Pro-Arg) [Rigin, tetrapeptide analogue of Tuftsin]
stimulation of phagocytosis [5]: phagocytosis-stimulating abilities similar to those of Tuftsin

PRKTKGSGFFVF [portion of Cε 4 of human IgE, aa 495-506]
degranulation of mast cells (rodent mast cells): cause degranulation
degranulation of mast cells (human mast cells): cause degranulation

QYDSTYR [heptapeptide identical to IgG aa 295-301]
blocking of IgG binding to human monocyte IgG Fc receptors [6]: slightly block
